Data: the supplement of paper PMC11061612

How the values were obtained:
Assay in all cases: Bliss excess, mean over the matrix (fraction); higher = more synergy
[1] = test system: MOLT-13 (T-Lymphoblastic Leukemia)
Procedure, shortened: (§1)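 Cell lines grown in DMEM/F12 or RPMI with 10% FBS were plated in 1536-well plates and held 24 hours at 37°C, 5% CO2 before 72 hours of exposure to two-drug dose matrices, with DMSO typically at 0.2%. CellTiter-Glo 2.0 luminescence gave viability, which was converted to inhibition. Vehicle wells were set to 0 and blank wells to 1. Combination Emax is the second-highest inhibition in the matrix, and Bliss excess is the observed combination effect minus the expected EA + EB − EA·EB, where EA and EB are the single-agent effects.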

KALS-1 (Glioblastoma) = test system: KALS-1 (Glioblastoma)
Procedure, shortened: as §1

[2] = test system: SKG-IIIa (Cervical Carcinoma)
Procedure, shortened: as §1

[3] = test system: C-33-A (Cervical Carcinoma)
Procedure, shortened: as §1

[4] = test system: TUR (Acute Myeloid Leukemia)
Procedure, shortened: as §1

[5] = test system: PA-TU-8988T (Pancreatic Carcinoma)
Procedure, shortened: as §1

[6] = test system: MDA-MB-415 (Breast Carcinoma)
Procedure, shortened: as §1

[7] = test system: SNU-C2B (Colorectal Carcinoma)
Procedure, shortened: as §1

T47D (Breast Carcinoma) = test system: T47D (Breast Carcinoma)
Procedure, shortened: as §1

[8] = test system: COR-L88 (Small Cell Lung Carcinoma)
Procedure, shortened: as §1

[9] = test system: HT-1080 (Other Solid Carcinomas)
Procedure, shortened: as §1

[10] = test system: SCC-4 (Oral Cavity Carcinoma)
Procedure, shortened: as §1

[11] = test system: P30-OHK (B-Lymphoblastic Leukemia)
Procedure, shortened: as §1

[12] = test system: NCI-H1963 (Small Cell Lung Carcinoma)
Procedure, shortened: as §1

SK-N-SH (Neuroblastoma) = test system: SK-N-SH (Neuroblastoma)
Procedure, shortened: as §1

[13] = test system: LCLC-103H (Non-Small Cell Lung Carcinoma)
Procedure, shortened: as §1

[14] = test system: BHT-101 (Thyroid Gland Carcinoma)
Procedure, shortened: as §1

[15] = test system: CPC-N (Small Cell Lung Carcinoma)
Procedure, shortened: as §1

WM35 (Melanoma) = test system: WM35 (Melanoma)
Procedure, shortened: as §1

[16] = test system: MOLP-8 (Plasma Cell Myeloma)
Procedure, shortened: as §1

Row | SMILES | Bliss excess [1] | Bliss excess (KALS-1 (Glioblastoma)) | Bliss excess [2] | Bliss excess [3] | Bliss excess [4] | Bliss excess [5] | Bliss excess [6] | Bliss excess [7] | Bliss excess (T47D (Breast Carcinoma)) | Bliss excess [8] | Bliss excess [9] | Bliss excess [10] | Bliss excess [11] | Bliss excess [12] | Bliss excess (SK-N-SH (Neuroblastoma)) | Bliss excess [13] | Bliss excess [14] | Bliss excess [15] | Bliss excess (WM35 (Melanoma)) | Bliss excess [16]
1 | COc1cc2c(cc1OCCCCCOc1cc3c(cc1OC)C(=O)N1C=C(C)C[C@H]1C=N3)N=C[C@@H]1CC(C)=CN1C2=O [SG3199] + O=C(c1cc(Cc2n[nH]c(=O)c3ccccc23)ccc1F)N1CCN(C(=O)C2CC2)CC1 [Olaparib] (first compound max 0.001 µM, 7x7, partner max 10 µM) | 0.018 | -0.0155 | -0.0391 | -0.0476 | 0.0081 | 0.0053 | -0.0333 | -0.0374 | -0.0449 | -0.0133 | -0.02 | -0.0545 | -0.0422 | 0.025 | -0.0454 | -0.0506 | -0.009 | -0.0062 | -0.0129 | 0.002
2 | CCc1c2c(nc3ccc(O)cc13)-c1cc3c(c(=O)n1C2)COC(=O)[C@]3(O)CC [SN-38] + CN(C)CCCOc1ccc(-c2ccc3ncc4c(c3c2)n(C2CCOCC2)c(=O)n4C)cn1 [AZD0156] (first compound max 0.3 µM, 7x7, partner max 1 µM) | 0.085 | 0.0189 | 0.0352 | 0.0058 | 0.0516 | 0.0755 | -0.0262 | 0.0089 | -0.0023 | -0.0636 | 0.0132 | 0.0021 | 0.0969 | 0.0847 | -0.104 | 0.0263 | 0.0664 | 0.199 | 0.0082 | -0.142
3 | C[C@@H](c1ccc2nccn2c1)n1nnc2ncc(-c3cnn(C)c3)nc21 [Savolitinib] + CC1(C)CCC(CN2CCN(c3ccc(C(=O)NS(=O)(=O)c4ccc(NCC5CCOCC5)c([N+](=O)[O-])c4)c(Oc4cnc5[nH]ccc5c4)c3)CC2)=C(c2ccc(Cl)cc2)C1 [Venetoclax] (first compound max 1 µM, 7x7, partner max 1 µM) | -0.0181 | -0.0571 | -0.0546 | -0.0466 | -0.0452 | -0.0763 | -0.0258 | -0.0831 | -0.0753 | -0.021 | -0.0676 | -0.0649 | -0.0198 | -0.0237 | -0.0289 | -0.0518 | -0.0341 | -0.0454 | -0.065 | -0.0194
4 | C[C@@H](c1ccc2nccn2c1)n1nnc2ncc(-c3cnn(C)c3)nc21 [Savolitinib] + Cc1c2c(nn1C)CSCc1cc(n(C)n1)CSc1cc(c3ccccc3c1)OCCCc1c(C(=O)O)n(C)c3c-2c(Cl)ccc13 [AZD5991] (first compound max 1 µM, 7x7, partner max 1 µM) | -0.0368 | -0.0411 | -0.0554 | -0.0084 | 0.0026 | -0.0205 | -0.0462 | -0.0554 | -0.0426 | -0.0019 | -0.0475 | -0.0295 | 0.0046 | -0.0134 | -0.0501 | -0.0417 | -0.0307 | -0.0179 | -0.0503 | -0.0219
5 | Cn1cnc2c(F)c(Nc3ccc(Br)cc3Cl)c(C(=O)NOCCO)cc21 [Selumetinib] + C=CCn1c(=O)c2cnc(Nc3ccc(N4CCN(C)CC4)cc3)nc2n1-c1cccc(C(C)(C)O)n1 [AZD1775] (first compound max 10 µM, partner max 1 µM) | 0.0535 | -0.0755 | -0.0733 | 0.021 | -0.0146 | -0.0202 | -0.0754 | -0.0667 | -0.0179 | -0.011 | -0.0299 | -0.0376 | -0.0789 | -0.0834 | -0.11 | -0.0316 | -0.0417 | -0.0858 | 0.0038 | 0.0535
6 | Cn1cnc2c(F)c(Nc3ccc(Br)cc3Cl)c(C(=O)NOCCO)cc21 [Selumetinib] + CC(C)n1c(=O)n(C)c2cnc3cc(F)c(-c4ccc(OCCCN5CCCCC5)nc4)cc3c21 [AZD1390] (first compound max 10 µM, 7x7, partner max 0.3 µM) | 0.0447 | -0.0115 | -0.0444 | 0.0134 | -0.0122 | -0.0269 | -0.047 | -0.0081 | -0.0468 | -0.0086 | -0.0697 | -0.0669 | -0.0043 | 0.0154 | -0.0624 | -0.0154 | -0.0429 | -0.0396 | -0.0551 | -0.0274
7 | Cn1cnc2c(F)c(Nc3ccc(Br)cc3Cl)c(C(=O)NOCCO)cc21 [Selumetinib] + CCN(CCO)CCCOc1ccc2c(Nc3cc(CC(=O)Nc4cccc(F)c4)[nH]n3)ncnc2c1 [AZD2811] (first compound max 10 µM, 7x7, partner max 1 µM) | 0.0312 | -0.0093 | -0.0486 | 0.0162 | 0.0277 | -0.0527 | -0.0064 | 0.0193 | -0.0735 | 0.0014 | -0.0315 | 0.0003 | -0.0123 | 0.0053 | -0.0557 | -0.0104 | -0.0267 | -0.0474 | -0.0566 | -0.017
8 | Cn1cnc2c(F)c(Nc3ccc(Br)cc3Cl)c(C(=O)NOCCO)cc21 [Selumetinib] + C[C@@H]1COCCN1C2=NC(=NC(=C2)C3(CC3)[S@](=N)(=O)C)C4=C5C=CNC5=NC=C4 [AZD6738] (first compound max 10 µM, 7x7, partner max 10 µM) | 0.106 | -0.0479 | -0.0275 | 0.0486 | 0.0151 | 0.0731 | -0.0395 | 0.0369 | -0.0576 | -0.0124 | 0.0553 | -0.0352 | 0.012 | 0.0735 | -0.0719 | -0.0399 | -0.0174 | -0.046 | 0.0172 | 0.0551
